Experimental data published in patent publication US6004960A, “Pyridazinones as inhibitors of cyclooxygenase-2” (Merck Frosst Canada, Inc., priority 1998, dated 1999).

How the values were obtained:
[1] = biological target: T1, COX-2 (Homo sapiens, UniProt P35354); assay: Whole cell assay for COX-2 using CHO transfected cell line (CHO [hCOX-2]), PGE2; format: cell-based; set-up: expressed in transfected cells; host or cells: CHO (Chinese hamster ovary), stably transfected with pCDNAIII vector; CHO [hCOX-2]; settings: CHO [hCOX-2] cells, 10 μM AA
T1 sequence (P35354 18-604): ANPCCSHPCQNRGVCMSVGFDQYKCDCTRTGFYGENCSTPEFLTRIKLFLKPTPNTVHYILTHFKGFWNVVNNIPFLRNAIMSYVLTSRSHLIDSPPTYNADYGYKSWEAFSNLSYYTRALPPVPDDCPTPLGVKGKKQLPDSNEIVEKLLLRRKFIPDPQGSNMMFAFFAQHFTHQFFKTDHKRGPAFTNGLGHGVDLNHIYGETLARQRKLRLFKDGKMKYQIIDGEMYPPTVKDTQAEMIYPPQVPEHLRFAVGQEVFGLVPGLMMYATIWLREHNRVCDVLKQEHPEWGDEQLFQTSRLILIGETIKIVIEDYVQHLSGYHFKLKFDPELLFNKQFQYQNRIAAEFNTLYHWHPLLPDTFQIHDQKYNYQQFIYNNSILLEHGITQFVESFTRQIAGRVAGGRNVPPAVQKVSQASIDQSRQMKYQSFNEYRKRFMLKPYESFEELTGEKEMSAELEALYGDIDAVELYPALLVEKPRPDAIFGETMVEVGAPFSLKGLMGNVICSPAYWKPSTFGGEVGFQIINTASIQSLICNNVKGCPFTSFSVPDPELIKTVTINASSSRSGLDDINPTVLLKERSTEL
Experimental: Chinese hamster ovary (CHO) cell lines which have been stably transfected with an eukaryotic expression vector pCDNAIII containing either the human COX-1 or COX-2 cDNA's are used for the assay. These cell lines are referred to as CHO [hCOX-1] and CHO [hCOX-2], respectively. […] Drugs to be tested are dissolved in DMSO to 66.7-fold the highest test drug concentration. […] Cells (0.3×10^6 cells in 200 p) are preincubated with 3 AIl of the test drug or DMSO vehicle for 15 min at 37° C. […] Cells are then challenged in the presence or absence of drug with the AA/HBSS solution to yield a final concentration of 0.5 μM AA in the CHOhCOX-1] assay and a final concentration of 10 μM AA in the CHO [hCOX-2] assay. […] The samples are centrifuged at 300×g at 4° C. for 10 min, and an aliquot of the clarified supernatant is appropriately diluted for the determination of PGE2 levels using an enzyme-liked immunoassay for PGE2 (Correlate PGE2 enzyme immunoassay kit, Assay Designs, Inc.). Cyclooxygenase activity in the absence of test compounds is determined as the difference in PGE2 levels of cells challenged with arachidonic acid versus the PGE2 levels in cells mock-challenged with ethanol vehicle. Inhibition of PGE2 synthesis by test compounds is calculated as a percentage of the activity in the presence of drug versus the activity in the positive control samples.
(§1) In the assay, inhibition is determined by measuring the amount of prostaglandin E2 (PGE2) synthesized in the presence of arachidonic acid, cyclooxygenase-I or cyclooxygenase-2 and a putative inhibitor.

[2] = biological target: T1, COX-2; assay: Human whole blood assay, COX-2 (LPS-induced PGE2 production); format: cell-based; set-up: incubation of human whole blood with LPS, which induces COX-2; from tissue; host or cells: fresh human whole blood (volunteers), incubated with LPS; settings: LPS-induced PGE2, 24 hours at 37° C, read-out: COX-2 (IC50 μM) HWB
Description: As well, platelets in whole blood contain a large amount of the COX-1 enzyme. Immediately following blood clotting, platelets are activated through a thrombin-mediated mechanism. This reaction results in the production of thromboxane B2 (TxB2) via activation of COX-1. Thus, the effect of test compounds on TxB2 levels following blood clotting can be examined and used as an index for COX-1 activity. Therefore, the degree of selectivity by the test compound can be determined by measuring the levels of PGE2 after LPS induction (COX-2) and […] following blood clotting (COX-1) in the same assay.
A. COX-2 (LPS-induced PGE2 production)
Fresh blood is collected in heparinized tubes by venipuncture from both male and female volunteers. The subjects have no apparent inflammatory conditions and have not taken any NSAIDs for at least 7 days prior to blood collection. Plasma is immediately obtained from a 2mL blood aliquot to use as blank (basal levels of PGE2). The remaining blood is incubated with LPS (100 μg/ml final concentration, Sigma Chem, #L-2630 from E. coli; diluted in 0.1% BSA (Phosphate buffered saline) for 5 minutes at room temperature. Five hundred μL aliquots of blood are incubated with either 2μL of vehicle (DMSO) or 2 μL of a test compound at final concentrations varying from 10nM to 30 μM for 24 hours at 37° C. At the end of the incubation, the blood is centrifuged at 12,000×g for 5 minutes to obtain plasma. A 100 μL aliquot of plasma is mixed with 400 μL of methanol for protein precipitation. The supernatant is obtained and is assayed for PGE2 using a radioimmunoassay kit (Amersham, RPA#530) after conversion of PGE2 to its methyl oximate derivative according to the manufacturer's procedure. […]

[3] = biological target: COX-1 (Homo sapiens, UniProt P23219); assay: Assay of COX-1 activity from U937 cell microsomes; format: biochemical; set-up: Assay of COX-1 Activity from U937 cell microsomes; endogenous in cells; host or cells: U937 cells, 100,000×g microsomal pellet; settings: PGE2, read-out: COX-1 (IC50 μM) U-937
Experimental: Assay of COX-1 Activity from U937 cell microsomes
U 937 cells are pelleted by centrifugation at 500×g for 5 min and washed once with phosphate-buffered saline and repelleted. […] The cell suspension is sonicated 4 times for 10 sec and is centrifuged at 10,000×g for 10 min at 4° C. The supernatant is centrifuged at 100,000×g for 1 hr at 4° C. The 100,000×g microsomal pellet is resuspended in 0.1 M Tris-HCl, pH 7.4, 10 mM EDTA to approximately 7 mg protein/ml and stored at -80° C.
Microsomal preparations are thawed immediately prior to use, subjected to a brief sonication, and then diluted to a protein concentration of 125 μg/ml in 0.1 M Tris-HCl buffer, pH 7.4 containing 10 mM EDTA, 0.5 mM phenol, 1 mM reduced glutathione and 1 μM hematin. Assays are performed in duplicate in a final volume of 250 pl. Initially, 5 µl of DMSO vehicle or drug in DMSO are added to 20 μl of 0.1 M Tris-HCl buffer, pH 7.4 containing 10 mM EDTA in wells of a 96-deepwell polypropylene titre plate. 200 μl of the microsomal preparation are then added and pre-incubated for 15 min at room temperature before addition of 25 μl of […] in 0.1 M Tris-HCl and 10 mM EDTA, pH 7.4. Samples are incubated for 40 min at room temperature and the reaction is stopped by the addition of 25 pl of 1 N HCl. Samples are neutralized with 25 μl of 1 N NaOH prior to quantitation of PGE2 content by radioimmunoassay (Dupont-NEN or Amersham assay kits). Cyclooxygenase activity is defined as the difference between PGE2 levels in samples incubated in the presence of arachidonic acid and ethanol vehicle.
as §1

Chain of COX-1 (P23219 24-599): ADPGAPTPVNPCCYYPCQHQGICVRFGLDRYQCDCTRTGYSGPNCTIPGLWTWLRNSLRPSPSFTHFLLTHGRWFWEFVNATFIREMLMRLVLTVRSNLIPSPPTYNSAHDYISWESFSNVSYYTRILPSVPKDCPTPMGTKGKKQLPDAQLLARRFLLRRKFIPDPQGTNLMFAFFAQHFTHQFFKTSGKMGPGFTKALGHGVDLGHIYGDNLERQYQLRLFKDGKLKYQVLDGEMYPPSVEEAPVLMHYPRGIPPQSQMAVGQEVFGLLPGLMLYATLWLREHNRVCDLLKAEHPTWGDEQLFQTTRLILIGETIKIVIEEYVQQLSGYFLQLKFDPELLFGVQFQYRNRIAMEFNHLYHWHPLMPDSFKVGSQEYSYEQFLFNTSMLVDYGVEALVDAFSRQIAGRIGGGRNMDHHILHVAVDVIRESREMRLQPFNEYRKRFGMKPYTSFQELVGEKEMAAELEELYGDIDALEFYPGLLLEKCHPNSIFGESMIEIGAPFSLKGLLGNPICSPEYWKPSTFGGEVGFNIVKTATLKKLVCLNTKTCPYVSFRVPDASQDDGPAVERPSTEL

`COC(=O)c1ccc(Cn2ncc(-c3ccc(S(C)(=O)=O)cc3)c(-c3ccccc3)c2=O)cc1` [Example 13, 2-(4-Carbomethoxybenzyl)-5-(4-methylsulfonyl)phenyl-4-phenyl-2H-pyridazin-3-one] was tested. Which IC50 [1] did it give?
The IC50 was 2 µM.

What about the IC50 [2] of the same compound?
Its IC50 is > 33 µM.

And the IC50 [3]?
Its IC50 is > 10 µM.

With `CS(=O)(=O)c1ccc(-c2cnn(Cc3cccc(F)c3)c(=O)c2-c2ccccc2)cc1` [Example 15, 2-(3-Fluorobenzyl)-5-(4-methylsulfonyl)phenyl-4-phenyl-2H-pyridazin-3-one] as the compound, how does the IC50 [1] read?
Its IC50 is 0.009 µM.

What about the IC50 [2] of the same compound?
The IC50 was 0.8 µM.

What about the IC50 [3] of the same compound?
Its IC50 is > 10 µM.

With `CS(=O)(=O)c1ccc(-c2cnn(Cc3ccc(F)cc3)c(=O)c2-c2ccc(F)cc2)cc1` [Example 16, 2-(4-Fluorobenzyl)-4-(4-fluorophenyl)-5-(4-methylsulfonyl)phenyl-2H-pyridazin-3-one] as the compound, how does the IC50 [1] read?
The IC50 was 0.053 µM.

And the IC50 [2]?
The IC50 was 1.1 µM.

And the IC50 [3]?
Its IC50 is 3 to 10 µM.

How did the IC50 [3] turn out when `CS(=O)(=O)c1ccc(-c2cnn(Cc3ccccc3F)c(=O)c2-c2ccccc2)cc1` [Example 17, 2-(2-Fluorobenzyl)-5-(4-methylsulfonyl)phenyl-4-phenyl-2H-pyridazin-3-one] was run?
The IC50 was > 10 µM.

For `CS(=O)(=O)c1ccc(-c2cnn(C3CC3)c(=O)c2-c2ccc(F)cc2)cc1` [Example 18, 2-Cyclopropyl-5-(4-methylsulfonyl)phenyl-4-(4-fluorophenyl)-2H-pyridazin-3-one], which IC50 [3] is on record?
The IC50 was ~10 µM.

How did the IC50 [3] turn out when `CS(=O)(=O)c1ccc(-c2cnn(CCC(F)(F)F)c(=O)c2-c2ccc(F)cc2)cc1` [Example 19, 4-(4-Fluorophenyl)-5-(4-methylsulfonyl)phenyl-2-(3,3,3-trifluoropropyl)-2H-pyridazin-3-one] was run?
Its IC50 is > 10 µM.

With `CS(=O)(=O)c1ccc(-c2cnn(Cc3ccncc3)c(=O)c2-c2ccc(F)cc2)cc1` [Example 20, 4-(4-Fluorophenyl)-5-(4-methylsulfonyl)phenyl-2-(4-pyridylmethyl)-2H-pyridazin-3-one] as the compound, how does the IC50 [1] read?
The IC50 was 1.4 µM.

And the IC50 [2]?
Its IC50 is 16.8 µM.

What about the IC50 [3] of the same compound?
The IC50 was > 10 µM.

Which results are given for `CS(=O)(=O)c1ccc(-c2cnn(Cc3ccccc3)c(=O)c2Oc2ccc(Cl)cn2)cc1` [Example 23, 2-Benzyl-4-(5-chloro-2-pyridyloxy)-5-(4-methylsulfonyl)phenyl-2H-pyridazin-3-one]?
IC50 [1]: 0.26 µM; IC50 [2]: 0.9 µM; IC50 [3]: 3 to 10 µM

With `CC(C)(C)Cn1ncc(-c2ccc(S(C)(=O)=O)cc2)c(-c2ccc(F)cc2)c1=O` [Example 24, 2-(2,2-Dimethylpropyl)-4-(4-fluorophenyl)-5-(4-methylsulfonyl)phenyl-2H-pyridazin-3-one] as the compound, how does the IC50 [1] read?
Its IC50 is 0.16 µM.

What about the IC50 [2] of the same compound?
The IC50 was 2.4 µM.

What about the IC50 [3] of the same compound?
The IC50 was ~10 µM.

How did the IC50 [1] turn out when `CC(c1ccccc1)n1ncc(-c2ccc(S(C)(=O)=O)cc2)c(-c2ccc(F)cc2)c1=O` (stereo not shown) [Example 25, 4-(4-Fluorophenyl)-5-(4-methylsulfonyl)phenyl-2-(1-phenyl-ethyl)-2H-pyridazin-3-one] was run?
Its IC50 is 0.49 µM.

What about the IC50 [2] of the same compound?
The IC50 was 1.4 µM.

And the IC50 [3]?
The IC50 was ~1 µM.

For `CS(=O)(=O)c1ccc(-c2cnn(-c3cccc(F)c3)c(=O)c2-c2ccccc2)cc1` [Example 26, 2-(3-Fluorophenyl)-5-(4-methylsulfonyl)phenyl-4-phenyl-2H-pyridazin-3-one], which IC50 [1] is on record?
Its IC50 is 0.065 µM.

And the IC50 [2]?
Its IC50 is 5.5 µM.

What about the IC50 [3] of the same compound?
Its IC50 is > 10 µM.

With `CS(=O)(=O)c1ccc(-c2cnn(Cc3cccs3)c(=O)c2-c2ccc(F)cc2)cc1` [Example 27, 4-(4-Fluorophenyl)-5-(4-methylsulfonyl)phenyl-2-(thiophen-2-yl-methyl)-2H-pyridazin-3-one] as the compound, how does the IC50 [3] read?
Its IC50 is ~1 µM.

For `CS(=O)(=O)c1ccc(-c2cnn(CCCC(F)(F)F)c(=O)c2-c2ccc(F)cc2)cc1` [Example 29, 4-(4-Fluorophenyl)-5-(4-methylsulfonyl)phenyl-2-(4,4,4-trifluorobutyl)-2H-pyridazin-3-one], which IC50 [1] is on record?
Its IC50 is 0.18 µM.

And the IC50 [2]?
Its IC50 is 1.3 µM.

What about the IC50 [3] of the same compound?
Its IC50 is > 10 µM.

`CC(C)Cn1ncc(-c2ccc(S(C)(=O)=O)cc2)c(-c2ccc(F)cc2)c1=O` [Example 31, 4-(4-Fluorophenyl)-2-(2-methylpropyl)-5-(4-methylsulfonyl)phenyl-2H-pyridazin-3-one] was tested. Which IC50 [1] did it give?
Its IC50 is 0.18 µM.

What about the IC50 [2] of the same compound?
Its IC50 is 3.8 µM.

And the IC50 [3]?
The IC50 was > 10 µM.

With `CS(=O)(=O)c1ccc(-c2cnn(CCc3ccccc3)c(=O)c2-c2ccc(F)cc2)cc1` [Example 33, 2-(2-Phenethyl)-4-(4-fluorophenyl)-5-(4-methylsulfonyl)phenyl-2H-pyridazin-3-one] as the compound, how does the IC50 [2] read?
Its IC50 is 8.6 µM.

What about the IC50 [3] of the same compound?
Its IC50 is > 10 µM.

With `CS(=O)(=O)c1ccc(-c2cnn(Cc3ccccc3)c(=O)c2Oc2ccc(Br)cn2)cc1` [Example 34, 2-Benzyl-4-(5-bromo-2-pyridyloxy)-5-(4-methylsulfonyl)phenyl-2H-pyridazin-3-one] as the compound, how does the IC50 [2] read?
Its IC50 is 0.86 µM.

What about the IC50 [3] of the same compound?
Its IC50 is > 10 µM.

For `Cc1ccc(-c2c(-c3ccc(S(C)(=O)=O)cc3)cnn(Cc3ccccc3)c2=O)cc1` [Example 35, 2-Benzyl-4-(4-methylphenyl)-5-(4-methylsulfonyl)phenyl-2H-pyridazin-3-one], which IC50 [2] is on record?
The IC50 was 0.35 µM.

For `CS(=O)(=O)c1ccc(-c2cnn(CC3CCCCC3)c(=O)c2-c2ccc(F)cc2)cc1` [Example 36, 2-Cyclohexylmethyl-4-(4-fluorophenyl)-5-(4-methylsulfonyl)phenyl-2H-pyridazin-3-one], which IC50 [3] is on record?
Its IC50 is 0.3 to 1 µM.
